Key:
Type in all cases: physicochemical
[1] = Solubility in water at various pH-values; conditions: for calculated concentration charged: soluble
Experimental: The solubilities in water of 6-(4-(tert-butyl)phenoxy)pyridin-3-amine (formula (Ia)) and the monohydrochloride salt thereof, i.e. 6-(4-(tert-butyl)phenoxy)pyridin-3-amine monohydrochloride, were assessed at various pH-values according to Tables 3 and 4. The solubility in water of 6-(4-(tert-butyl)phenoxy)pyridin-3-amine (formula (Ia)) according to Table 3 was assayed as follows: Free base 500 mg were charged into 14 mL of acidic media at pH=2, 4, at neutral pH=7 and basic pH=10 to afford suspensions within calculated concentration of appr. 35 mg/mL. The solubility in water of 6-(4-(tert-butyl)phenoxy)pyridin-3-amine monohydrochloride according to Table 4 was assayed as follows: HCl salt 100 mg each were charged into acidic media at pH=2 and 4 and neutral media pH=7 to furnish solutions. Most important observation was to that at a neutral solution at pH=7 drops down to pH=1 by charging HCl salt 100 mg.

[2] = Forced degradation: solid state with thermal stress
Experimental: Instrumentation: • Light stability chamber: Solarbox 1500e • Oven: Salvis Vacuum drying oven VC-20 • Heating unit: Ikamag RET-GS with IKA ETS SD and stainless steel heating block • Vials: Supelco V-Vials and screw caps with PTFE septa • Gas tight vials: Agilent 10 mL HS-GC clear glass vials and crimp caps with Not applicable PTFE septa • Quartz glass cuvette: Hellma precision cuvette Suprasil, Type 117.100-QS, 10 mm path length, screw capped with silicone septa • HPLC: As described above
The HPLC test method described above was used to determine the assay and purity of 6-(4-(tert-butyl)phenoxy)pyridin-3-amine monohydrochloride before the forced degradation experiments and the area % content of individual impurities and degradation products in the 6-(4-(tert-butyl)phenoxy)pyridin-3-amine monohydrochloride samples obtained from the degradation experiments.
The assay and the purity of 6-(4-(tert-butyl)phenoxy)pyridin-3-amine monohydrochloride were determined using HPLC with UV detection at 220 nm utilizing the area normalization methodology for purity determination and external standard calibration for assay determination. During all experiments the UV spectra from 200 nm to 950 nm have been recorded and also the peak purity of 6-(4-(tert-butyl)phenoxy)pyridin-3-amine monohydrochloride was assessed.
Approximately 20.4 mg and 50.1 mg of 6-(4-(tert-butyl)phenoxy)pyridin-3-amine monohydrochloride were weighed into a Supelco V-Vial. The vial was closed with the screw cap and stored in the heating block of the heating unit operated at 100° C.±5° C. for 20 h (20 mg sample) and 68 h (50 mg sample), respectively.
After storage at 100° C. for the intended time each sample was cooled down to room temperature and the content of the vial was dissolved in about 4 mL of the sample solvent (acetonitrile/water 3:1 v/v). The obtained solution was quantitatively transferred into a 25 mL volumetric flask (20 mg sample), or to a 50 mL volumetric flask (50 mg sample), respectively. […]

[3] = Stability study, storage −20° C.
Experimental: For 6-(4-(tert-butyl)phenoxy)pyridin-3-amine monohydrochloride two different types of stability studies were performed including short-term and long-term stability studies, respectively, at 25° C. (RH, 60%), −5° C. and −20° C. for 36 months and an accelerated study at 40° C. (RH, 75%) over 6 months. In terms of analytical determinations six tests were involved including appearance, assay free base mean and purity mean, water, IR and XRPD. Appearance was determined by visual inspection. The product should be a white or off-white powder. Water content was determined according to USP <921> coulometric method. Identification of 6-(4-(tert-butyl)phenoxy)pyridin-3-amine monohydrochloride by IR spectroscopy was done according to USP <197>, comparing the spectrum obtained to that of the reference standard. X-Ray powder diffraction (XRPD) was performed according to USP <941> against the reference XRPD spectrum. Purity and assay of free base was done by HPLC-UV. Two methods were used. Mobile phases in the first method were water and acetonitrile. Mobile phases in the second method were water (0.5 mL of trifluoroacetic acid was added to 1000 mL of water) and acetonitrile (0.4 mL of trifluoroacetic acid was added to 1000 mL of acetonitrile). Equipment and chromatographic conditions for identification and determination of purity and assay of the 6-(4-(tert-butyl)phenoxy)pyridin-3-amine monohydrochloride by HPLC-UV according to the first method and the second method, respectively, are shown in Tables 5 and 6. [table] [table]

[4] = 15% acetic acid soln., pH solvent 2, 100 mg in 0.6 ml
[5] = Fluka 33643 (pH = 4), 100 mg in 1.4 ml
[6] = Fluka 33646 (pH = 7), 100 mg in 1.0 ml
[7] = 6 months stability studies, 3 mths
[8] = 6 months stability studies, 6 mths
[9] = 6 months stability studies, Release data
[10] = 36 months stability studies, 6 mths
[11] = 36 months stability studies, 9 mths
[12] = 36 months stability studies, 12 mths
[13] = 36 months stability studies, 18 mths
[14] = 36 months stability studies, 24 mths

pH solution [1, 4]: 0 | soluble ([1]; 15% acetic acid soln., pH solvent 2, 100 mg in 0.6 ml, conc. 166.66 mg/mL): yes | calculated concentration charged [1, 4]: 166.66 mg/mL | pH solution [1, 5]: 1 | soluble ([1]; Fluka 33643 (pH = 4), 100 mg in 1.4 ml, conc. 71.43 mg/mL): yes | calculated concentration charged [1, 5]: 71.43 mg/mL | pH solution [1, 6]: 1 | soluble ([1]; Fluka 33646 (pH = 7), 100 mg in 1.0 ml, conc. 100.00 mg/mL): yes | calculated concentration charged [1, 6]: 100.00 mg/mL | solubility in water ([1]; water, in words): well-soluble | stability in solid state ([2]; 100° C.): stable | changes in the purity and the purity profile ([2]; solid state, after 68 h storage at 100° C.): No significant changes | decrease in the assay ([2]; solid state, storage at 100° C., accepted variability of the method ±2%): ≤ 2% | Assay free base, mean [3, 7]: 86.1 % m/m | IR, conforms to reference [3, 7]: complies | Purity, mean [3, 7]: 99 % area | Water [3, 7]: 0.02 % m/m | Assay free base, mean [3, 8]: 87.3 % m/m | IR, conforms to reference [3, 8]: complies | Purity, mean [3, 8]: 99 % area | Water [3, 8]: 0.02 % m/m | Assay free base, mean [3, 9]: 89.4 % m/m | IR, conforms to reference [3, 9]: complies | Purity, mean [3, 9]: 100 % area | Water [3, 9]: 0.01 % m/m | Water ([3]; 36 months stability studies, 3 mths): 0.02 % m/m | Assay free base, mean [3, 10]: 87.4 % m/m | Purity, mean [3, 10]: 100.0 % area | Water [3, 10]: 0.02 % m/m | Assay free base, mean [3, 11]: 88.6 % m/m | Purity, mean [3, 11]: 100.0 % area | Water [3, 11]: 0.03 % m/m | Assay free base, mean [3, 12]: 87.5 % m/m | Purity, mean [3, 12]: 100.0 % area | Water [3, 12]: 0.02 % m/m | Assay free base, mean [3, 13]: 87.4 % m/m | Purity, mean [3, 13]: 100.0 % area | Water [3, 13]: 0.01 % m/m | Assay free base, mean [3, 14]: 87.4 % m/m | Purity, mean [3, 14]: 100.0 % area | Water [3, 14]: 0.02 % m/m | Water ([3]; 36 months stability studies, Release data): 0.01 % m/m
Structure (SMILES): CC(C)(C)c1ccc(Oc2ccc(N)cn2)cc1.Cl [6-(4-(tert-butyl)phenoxy)pyridin-3-amine monohydrochloride]

Reference: patent publication US11472771B2, “Process for making amino diaryl ethers and amino diaryl ethers hydrochloride salts” (CELLESTIA BIOTECH AG, priority 2018, dated 2022)
